{"source": "patent US20240075046A1", "about": "(priority 2020, published 2024)", "key": {"ESR1": {"tested_on": "ESR1", "experiment": "ESR1 expression level, real-time PCR in MCF7 cells", "format": "cell-based", "details": "18 hours, FIG. 10C", "protocol": "The expression level of ESR1, the gene encoding for ERα, using real-time PCR following 18 hours of CANN14 treatment was examined. RNA was extracted from 5×10^5 cells and isolated using TRI reagents (Sigma, UK) according to the manufacturer's protocol. The RNA was reverse transcribed with Maxima First Strand cDNA synthesis kit (Life Technologies, Burlington, Canada) and RT-qPCR was preformed using Taq-Man (Life Technologies Ltd, UK). The fold change of calculated compared to the housekeeping gene 18S, using the formula 2^(−ΔΔCT). DMSO was used as a control. […] The activity of ERα as a transcriptional regulator by assessing its binding to Estrogen Response Elements (ERE) following CANN14 treatment was then examined. MCF7 cells were transfected with ERE-luciferase plasmid and luciferase activity was measured.\nNext, the effect of the three identified cannabinoids on ERα expression and activity was examined. ERα protein level in MCF7, T47D, and ZR-75-1 cells was measured following 18 hours treatment with either THC, CBN or CF2, separately or in combinations (FIGS. 7A-7B, 8A-8B, and 9A-9B, respectively). […] ESR1 expression level was lowest following treatment with CF2 alone (FIG. 10C)."}, "[1]": {"tested_on": "AR, CDC25, GREB1, PGR and TFF1", "experiment": "Expression of genes upregulated by estradiol binding to ERα, real-time PCR in MCF7 cells", "format": "cell-based", "details": "18 hours, FIGS. 10D-10H"}, "MCF7 cells [2]": {"tested_on": "MCF7 cells", "format": "cell-based"}, "ERα [3]": {"molecular_target": "T1, ERα (Homo sapiens, UniProt P03372)", "T1 sequence (P03372 whole entry)": "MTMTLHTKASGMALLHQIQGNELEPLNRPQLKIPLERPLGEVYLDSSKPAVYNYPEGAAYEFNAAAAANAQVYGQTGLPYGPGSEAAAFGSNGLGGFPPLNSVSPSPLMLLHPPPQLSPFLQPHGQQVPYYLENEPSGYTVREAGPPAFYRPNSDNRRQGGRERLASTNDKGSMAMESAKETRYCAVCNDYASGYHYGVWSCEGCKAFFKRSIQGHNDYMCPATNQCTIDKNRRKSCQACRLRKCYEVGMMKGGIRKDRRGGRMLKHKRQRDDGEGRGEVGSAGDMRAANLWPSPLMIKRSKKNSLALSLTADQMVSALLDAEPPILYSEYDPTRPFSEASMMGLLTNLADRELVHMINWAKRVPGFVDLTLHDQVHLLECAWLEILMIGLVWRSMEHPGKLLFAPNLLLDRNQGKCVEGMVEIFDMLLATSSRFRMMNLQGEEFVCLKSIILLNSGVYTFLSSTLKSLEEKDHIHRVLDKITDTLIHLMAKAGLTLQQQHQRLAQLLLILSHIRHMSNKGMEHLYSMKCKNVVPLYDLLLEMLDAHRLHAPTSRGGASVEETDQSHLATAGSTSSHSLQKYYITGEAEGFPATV", "experiment": "ERα protein level, western blot in MCF7 cells", "format": "cell-based", "parameters": "The intensity of ERα in the nucleus of MCF7 cells was reduced with time; endogenous in cells; host or cells: MCF7", "details": "18 hours, single cannabinoids vs 1:25:1,000 combination, FIGS. 10A-10B"}, "[4]": {"tested_on": "Immortalized Human Endometriotic Cell Line (12Z)", "experiment": "Endometriosis model, Annexin V assay, cell viability", "format": "cell-based", "details": "12Z cells; 24 hours; CF2 concentration of 1 μg/mL", "protocol": "To determine the therapeutic effects of CF2 on endometriosis, an Immortalized Human Endometriotic Cell Line (12Z) was used. Cells were incubated in a 12 well plate, each containing 1×10^6 cells. The cells were treated with either vehicle, or CF2 (0.125 to 1 μg/mL each) for 24 hours. Apoptosis was assessed using the Annexin V assay as detailed above. Data are presented as mean±S.E.M (n=3) and statistically analyzed by two-way ANOVA (*p<0.05, ****p<0.0001)."}, "ERα [5]": {"molecular_target": "T1, ERα", "experiment": "Endometriosis model, estrogen receptor western blot in 12Z cell line", "format": "cell-based", "parameters": "endogenous in cells; host or cells: 12Z", "details": "5 h, CF2 0.125 to 0.75 μg/mL"}, "MCF7 cells [6]": {"tested_on": "MCF7 cells", "details": "extracts 4 μg/ml, 24 hours, tamoxifen 5 μM, alone or combined"}, "[7]": {"tested_on": "cleaved caspase-3 in MCF7 cells", "experiment": "Cleaved caspase-3 western blot", "format": "cell-based", "details": "8 hours, CANN14 4 μg/ml, tamoxifen 5 μM, relative to DMSO control"}, "MCF7 cells [8]": {"tested_on": "MCF7 cells", "experiment": "In-vivo mouse model, subcutaneous MCF7 ectopic tumor", "details": "nude mice, MCF7 tumors; IP three times weekly; CANN14 25 mg/kg, tamoxifen 2 mg/kg"}, "[9]": {"tested_on": "cleaved caspase-3 in T47D cells", "experiment": "Cleaved caspase-3 western blot", "format": "cell-based", "details": "8 hours, CANN14 4 μg/ml, tamoxifen 5 μM, relative to DMSO control"}, "[10]": {"tested_on": "cleaved caspase-3 in ZR-75-1 cells", "experiment": "Cleaved caspase-3 western blot", "format": "cell-based", "details": "8 hours, CANN14 4 μg/ml, tamoxifen 5 μM, relative to DMSO control"}, "T47D cells": {"tested_on": "T47D cells", "experiment": "Apoptosis by Annexin V/PI staining, flow cytometry", "format": "cell-based", "details": "CANN14 4 μg/ml, tamoxifen 5 μM or combination"}, "ZR-75-1 cells": {"tested_on": "ZR-75-1 cells", "experiment": "Apoptosis by Annexin V/PI staining, flow cytometry", "format": "cell-based", "details": "CANN14 4 μg/ml, tamoxifen 5 μM or combination"}}, "note": "Entries after “also recorded” stand apart in the source; their conditions may differ."}
{"smiles": "CCCCCc1cc(O)c(C/C=C(/C)CCC=C(C)C)c(O)c1OC(C)=O", "note": "[CF2]", "values": [{"measurement": "ESR1 expression level", "setting": "ESR1", "result": "lowest"}, {"measurement": "expression levels of ERα target genes", "setting": "[1]", "result": "reduced to the lowest level compared to the control"}, {"measurement": "apoptotic effect compared with the original 1:25:1,000 combination of CF2, CBN, and THC", "setting": "MCF7 cells [2]", "result": "same apoptotic effect as the original combination of the three phytocannabinoids"}, {"measurement": "apoptotic effect compared with the CANN14 whole extract", "setting": "MCF7 cells [2]; MCF7 cells, higher concentrations of CF2, in combination with tamoxifen, FIG. 4G", "result": "significantly superior to the CANN14 whole extract"}, {"measurement": "ERα protein level", "setting": "ERα [3]", "result": "significantly reduced the most; also recorded: reduces ERα protein level"}, {"measurement": "cell viability (% Live cells)", "setting": "[4]", "result": "statistically significant reduction in cell viability; also recorded: reduces cell viability"}, {"measurement": "ERα protein level", "setting": "ERα [5]", "result": "significantly reduced; also recorded: reduces"}]}
{"smiles": "CC/C(=C(\\c1ccccc1)c1ccc(OCCN(C)C)cc1)c1ccccc1", "note": "[tamoxifen]", "values": [{"measurement": "% Apoptosis", "setting": "MCF7 cells [2]; MCF7 cells, CANN14 4 μg/ml, tamoxifen 5 μM or combination", "result": "not affected"}, {"measurement": "% Cell death", "setting": "MCF7 cells [6]", "result": "did not affect the viability of the cells"}, {"measurement": "cleaved caspase-3, normalized intensity (treatment/control)", "setting": "[7]", "result": "increased induction of cleaved caspase-3"}, {"measurement": "ectopic tumor volume / tumor size", "setting": "MCF7 cells [8]", "result": "trend of smaller tumor sizes"}, {"measurement": "cleaved caspase-3, normalized intensity (treatment/control)", "setting": "[9]", "result": "increased induction of cleaved caspase-3"}, {"measurement": "cleaved caspase-3, normalized intensity (treatment/control)", "setting": "[10]", "result": "increased induction of cleaved caspase-3"}, {"measurement": "% Apoptosis", "setting": "T47D cells", "result": "not affected"}, {"measurement": "% Apoptosis", "setting": "ZR-75-1 cells", "result": "not affected"}]}
{"smiles": "CCCCCc1cc(O)c2c(c1)OC(C)(C)c1ccc(C)cc1-2", "note": "[CBN, cannabinol, reference compound]", "values": [{"measurement": "expression levels of ERα target genes", "setting": "[1]", "result": "reduced to the lowest level compared to the control"}]}
